This is an account of results in ChEMBL document CHEMBL1201862, “PubChem BioAssay data set” (2004).

In one test the test system is HeLa. The test is described as follows: HeLa cell cytotoxicity, dose response, cytotoxicity control for MITF activator project, CellTiter-Glo luminescence, cherry-pick samples (AID 540259). It counts as functional, cell-based. The conditions noted are these: Homo sapiens. On the technique in general: ATP-based viability assays read luminescence as a measure of living cells.

The target of test [1] is Beta-2 adrenergic receptor (Homo sapiens, UniProt P07550). Nature of the test: beta2AR agonists driving receptor internalization, dose response, cell-based, FAP fluorogen, flow cytometry, cherry pick 1 (AID 588763). It counts as functional. (In general: Flow cytometry measures light scatter and fluorescence of single cells or particles in a stream.)
Beta-2 adrenergic receptor, sequence (P07550 whole entry): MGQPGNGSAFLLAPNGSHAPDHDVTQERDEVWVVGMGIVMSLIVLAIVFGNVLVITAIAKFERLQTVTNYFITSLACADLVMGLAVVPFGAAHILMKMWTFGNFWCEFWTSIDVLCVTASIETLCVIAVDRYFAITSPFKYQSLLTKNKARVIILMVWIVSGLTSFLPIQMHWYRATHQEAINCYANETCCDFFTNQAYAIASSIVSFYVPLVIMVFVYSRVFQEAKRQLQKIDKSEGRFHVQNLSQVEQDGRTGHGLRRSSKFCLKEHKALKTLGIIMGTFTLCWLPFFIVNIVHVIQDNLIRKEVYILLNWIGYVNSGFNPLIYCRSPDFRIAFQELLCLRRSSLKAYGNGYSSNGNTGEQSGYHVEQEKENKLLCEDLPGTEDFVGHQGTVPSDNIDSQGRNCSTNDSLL
Test [2] concerns the target Voltage-dependent T-type calcium channel subunit alpha-1H (Homo sapiens, UniProt O95180). It counts as functional.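 Also: channel activity triggered by adding a high calcium stimulation buffer.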
The target of another test is T1, Hexokinase (Trypanosoma brucei, UniProt Q38C41).
T1 sequence (Q38C41 whole entry): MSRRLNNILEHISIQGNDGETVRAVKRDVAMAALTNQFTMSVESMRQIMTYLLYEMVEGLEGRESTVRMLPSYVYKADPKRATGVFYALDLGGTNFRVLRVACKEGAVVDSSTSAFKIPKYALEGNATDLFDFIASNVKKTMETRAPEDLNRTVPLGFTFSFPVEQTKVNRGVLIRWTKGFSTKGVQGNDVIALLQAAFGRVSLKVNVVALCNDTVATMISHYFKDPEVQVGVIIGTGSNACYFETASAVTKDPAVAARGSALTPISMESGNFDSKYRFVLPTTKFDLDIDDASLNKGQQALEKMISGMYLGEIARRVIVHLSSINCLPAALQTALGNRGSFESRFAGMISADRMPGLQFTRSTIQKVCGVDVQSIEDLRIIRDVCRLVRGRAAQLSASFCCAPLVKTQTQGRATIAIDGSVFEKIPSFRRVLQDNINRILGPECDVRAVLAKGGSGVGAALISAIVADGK
The test is described as follows: Confirmation assay for inhibitors of Trypanosoma brucei hexokinase 1-Analogue-first series. [Related pubchem assays (depositor defined):AID1430, AID1632, AID2516, AID2560, AID2579, AID2600, AID449725, AID492951]. It counts as functional.

In test [3] the target is T2, Short transient receptor potential channel 4 (Mus musculus, UniProt Q9QUQ5).
T2 sequence (Q9QUQ5 whole entry): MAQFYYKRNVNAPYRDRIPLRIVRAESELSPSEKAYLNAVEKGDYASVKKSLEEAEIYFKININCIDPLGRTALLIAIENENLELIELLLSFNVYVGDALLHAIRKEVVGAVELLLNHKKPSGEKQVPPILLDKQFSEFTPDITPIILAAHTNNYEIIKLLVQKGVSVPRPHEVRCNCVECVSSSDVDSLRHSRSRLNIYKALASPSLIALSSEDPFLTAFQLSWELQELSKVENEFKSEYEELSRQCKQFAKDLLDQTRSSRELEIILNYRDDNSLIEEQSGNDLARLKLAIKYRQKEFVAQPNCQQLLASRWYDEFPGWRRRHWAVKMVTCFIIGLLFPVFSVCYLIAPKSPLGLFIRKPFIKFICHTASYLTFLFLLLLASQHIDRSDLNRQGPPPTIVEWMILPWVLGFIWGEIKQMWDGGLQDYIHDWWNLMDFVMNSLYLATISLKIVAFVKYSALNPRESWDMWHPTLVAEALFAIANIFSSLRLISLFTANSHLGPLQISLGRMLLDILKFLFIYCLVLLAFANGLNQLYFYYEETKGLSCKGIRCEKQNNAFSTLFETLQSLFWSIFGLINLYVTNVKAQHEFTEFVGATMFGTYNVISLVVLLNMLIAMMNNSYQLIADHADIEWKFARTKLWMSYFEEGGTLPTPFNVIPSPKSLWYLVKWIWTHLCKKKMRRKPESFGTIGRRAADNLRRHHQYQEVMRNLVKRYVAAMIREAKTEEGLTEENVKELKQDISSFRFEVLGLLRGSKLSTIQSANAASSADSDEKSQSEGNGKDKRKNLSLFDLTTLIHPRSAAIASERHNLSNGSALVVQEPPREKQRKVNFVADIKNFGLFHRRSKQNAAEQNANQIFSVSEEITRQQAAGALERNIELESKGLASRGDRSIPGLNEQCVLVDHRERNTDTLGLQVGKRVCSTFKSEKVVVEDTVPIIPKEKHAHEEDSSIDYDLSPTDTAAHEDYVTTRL
The test is described as follows: mouse TRPC4 channel activators, dose response, cell-based, HEK293 TRPC4/mu-opioid, Fluo-4 calcium (AID 434937). It counts as functional.

Test [4] is described as follows: Luminescence Cell-Based Dose Retest to Confirm Inhibitors of Cancer Stem Cells. [Related pubchem assays (depositor defined):AID2717, AID2721]. It counts as functional. The conditions noted are these: Homo sapiens.
A short description of a further test: cells. It counts as functional.
The nature of test [5]: Vero E6 cell cytotoxicity, dose response, cytotoxicity control for non-replicating M. tuberculosis project, secondary assay (AID 492998). It counts as functional, VeroE6. The conditions noted are these: Vero C1008.
A short description of test [6]: THP-1 cell cytotoxicity, dose response, cytotoxicity control for non-replicating M. tuberculosis project (AID 489025). It counts as functional.
Test [7] is described as follows: HepG2 cell cytotoxicity, dose response, cytotoxicity control for non-replicating M. tuberculosis project (AID 489018). It counts as functional. The conditions noted are these: Mycobacterium tuberculosis.

By AC50 is commonly meant the concentration at which the activity in the assay is half-maximal. What is called EC50 is the concentration giving half of the maximal effect. What is called IC50 is the concentration that inhibits the measured activity by half. By CC50 is commonly meant the concentration giving 50% cytotoxicity.

Activity calls are given as the source filed them.

Voltage-dependent T-type calcium channel subunit alpha-1H, sequence (O95180 whole entry): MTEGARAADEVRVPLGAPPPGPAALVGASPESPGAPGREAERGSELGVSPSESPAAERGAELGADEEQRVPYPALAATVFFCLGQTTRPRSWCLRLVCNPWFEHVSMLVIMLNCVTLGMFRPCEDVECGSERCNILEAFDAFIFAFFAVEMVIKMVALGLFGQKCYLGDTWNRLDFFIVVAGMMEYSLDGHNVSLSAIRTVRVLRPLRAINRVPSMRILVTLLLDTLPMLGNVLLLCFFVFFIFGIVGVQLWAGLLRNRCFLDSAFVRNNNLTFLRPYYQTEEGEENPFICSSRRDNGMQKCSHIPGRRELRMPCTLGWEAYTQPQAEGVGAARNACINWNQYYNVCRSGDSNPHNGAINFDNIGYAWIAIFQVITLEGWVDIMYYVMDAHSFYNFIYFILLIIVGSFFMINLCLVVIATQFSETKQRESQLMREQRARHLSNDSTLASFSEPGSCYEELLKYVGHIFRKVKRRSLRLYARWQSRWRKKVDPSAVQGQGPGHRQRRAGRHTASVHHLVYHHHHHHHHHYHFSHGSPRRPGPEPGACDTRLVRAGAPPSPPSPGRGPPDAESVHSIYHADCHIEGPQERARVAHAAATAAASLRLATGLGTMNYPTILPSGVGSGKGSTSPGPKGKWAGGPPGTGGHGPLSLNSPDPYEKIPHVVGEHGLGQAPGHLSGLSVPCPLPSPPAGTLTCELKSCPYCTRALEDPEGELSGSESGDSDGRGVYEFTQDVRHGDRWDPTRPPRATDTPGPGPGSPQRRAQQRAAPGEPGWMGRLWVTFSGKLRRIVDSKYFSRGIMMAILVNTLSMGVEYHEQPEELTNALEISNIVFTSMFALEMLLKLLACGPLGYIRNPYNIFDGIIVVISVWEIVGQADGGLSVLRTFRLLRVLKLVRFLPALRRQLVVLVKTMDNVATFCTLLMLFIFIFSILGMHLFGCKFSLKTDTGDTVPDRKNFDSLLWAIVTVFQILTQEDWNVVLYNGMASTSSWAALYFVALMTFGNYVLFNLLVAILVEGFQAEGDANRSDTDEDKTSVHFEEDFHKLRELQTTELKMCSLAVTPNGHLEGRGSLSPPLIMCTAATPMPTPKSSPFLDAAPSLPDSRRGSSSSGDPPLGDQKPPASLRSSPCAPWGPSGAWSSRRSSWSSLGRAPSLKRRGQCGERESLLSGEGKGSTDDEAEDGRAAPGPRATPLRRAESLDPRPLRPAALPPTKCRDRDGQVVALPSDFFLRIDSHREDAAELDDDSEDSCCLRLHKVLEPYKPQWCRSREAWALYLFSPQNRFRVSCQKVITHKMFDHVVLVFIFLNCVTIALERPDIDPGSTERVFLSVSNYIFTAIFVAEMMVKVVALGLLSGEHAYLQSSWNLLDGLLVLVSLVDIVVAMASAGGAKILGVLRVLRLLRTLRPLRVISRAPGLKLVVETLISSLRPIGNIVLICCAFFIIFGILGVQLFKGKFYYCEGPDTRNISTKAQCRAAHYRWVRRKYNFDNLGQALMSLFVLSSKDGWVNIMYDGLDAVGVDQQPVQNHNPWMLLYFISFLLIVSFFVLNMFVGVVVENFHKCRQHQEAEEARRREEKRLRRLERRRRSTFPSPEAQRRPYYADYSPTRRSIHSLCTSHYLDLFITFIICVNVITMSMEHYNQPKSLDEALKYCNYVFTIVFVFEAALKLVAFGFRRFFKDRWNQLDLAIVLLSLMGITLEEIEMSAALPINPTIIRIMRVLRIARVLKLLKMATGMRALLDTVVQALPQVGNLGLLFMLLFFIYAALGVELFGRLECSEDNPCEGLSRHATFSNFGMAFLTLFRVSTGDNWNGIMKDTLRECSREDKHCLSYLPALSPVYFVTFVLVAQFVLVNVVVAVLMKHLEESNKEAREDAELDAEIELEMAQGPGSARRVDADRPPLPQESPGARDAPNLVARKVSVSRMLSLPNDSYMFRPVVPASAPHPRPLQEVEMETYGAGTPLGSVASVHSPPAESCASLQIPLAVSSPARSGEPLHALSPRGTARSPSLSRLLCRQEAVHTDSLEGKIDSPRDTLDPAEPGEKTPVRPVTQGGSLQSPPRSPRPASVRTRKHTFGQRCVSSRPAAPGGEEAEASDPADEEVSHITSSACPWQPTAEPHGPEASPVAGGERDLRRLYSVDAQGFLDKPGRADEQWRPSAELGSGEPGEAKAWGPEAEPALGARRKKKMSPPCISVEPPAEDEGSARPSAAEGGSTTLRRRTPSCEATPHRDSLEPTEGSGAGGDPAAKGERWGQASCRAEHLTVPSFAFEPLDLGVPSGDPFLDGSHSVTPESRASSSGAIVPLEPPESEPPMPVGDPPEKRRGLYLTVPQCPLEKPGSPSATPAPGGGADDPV

`O=C(Nc1ccc2c(c1)CCC2)C1CCCN(c2ncccn2)C1` (stereo not drawn): the AC50 with HeLa was 104 µM (active).

For `Cc1ccc(Sc2cc(N3CCOCC3)nc(-c3ccccc3)n2)cc1`, the 50% effective concentration (EC50) in test [1] is 4.82 µM (active).

With `COc1ccc(C(C)=O)cc1COc1ccc(Cl)cc1Cl`, the EC50 in test [1] is 2.67 µM (active).

On to `Cc1ccc(CNC(=O)C[S+]([O-])Cc2nc(-c3ccccc3C)oc2C)cc1` (stereo not drawn), for which the EC50 in test [2] was 6 µM (active). `N#Cc1ccccc1NC(=O)Cn1sc2ccccc2c1=O`: the concentration for half-maximal inhibition (IC50) at Hexokinase was 7.21 µM (active).

For the molecule `COc1cc(OC)cc(-c2cc3cc(F)ccc3cn2)c1`, in the test with HeLa, the AC50 was 50.6 µM (active). Take `CCn1c(=O)cc(OCC(=O)NCCCN2CC(C)CC(C)C2)c2ccccc21` (stereo not drawn): the EC50 in test [3] is 0.473 µM (active). `Brc1ccc(/C=N/Nc2ccccc2)cc1`: the half-maximal activity concentration (AC50) in the test on HeLa was 65.5 µM (active); in test [4], 3.98 µM (active). For `CC1CC(C)CN(CCCNC(=O)c2csc3c2CCCCC3)C1` (stereo not drawn), the EC50 in test [3] was 4.73 µM (active). As to `Cc1ccc(C(=O)Nc2cc(Cl)ccc2C(=O)O)c(C)c1`, the IC50 at Hexokinase was > 25 µM (inactive).

In the case of `CN(C)c1c2ccccc2nc2c(F)c(F)c(F)c(F)c12`, the half-maximal inhibitory concentration (IC50) in the test “cells” was 17.7 µM (active). The values for the 50% cytotoxic concentration (CC50) in [5], in test [6] and in test [7] were > 20 µM (active), 22.9 µM (active) and > 20 µM (active), respectively. Regarding `Cc1ccc(NC(=O)C[S+]([O-])Cc2nc(-c3ccc(C)cc3)oc2C)cc1` (stereo not drawn), the half-maximal effective concentration (EC50) in test [2] is 2.45 µM (active).

Regarding `CCCNC(=O)Nc1nc2ccccc2s1`, the AC50 in the test with HeLa is 191 µM (active).

Consider `O=C(Cn1sc2ccccc2c1=O)N1CCOCC1`, for which the IC50 at Hexokinase was > 25 µM (inactive).
